In US11384066B1, “Heterocyclic compounds useful as aurora a selective inhibitors” (Jacobio Pharmaceuticals Co., Ltd., priority 2020, dated 2022):
Read-outs that look alike come from different tables or passages of the source.

How the values were obtained:
[1] = PK in rat; format: in vivo; conditions: SD male rats; for Vd: read-out: Vss
Protocol: The compounds were dissolved into 10% DMSO, 30% PEG400, and 60% saline to obtain a solution. SD male rats were given the compound orally and intravenously. Then plasma samples were collected at 0 hour (pre-dose), 0.25, 0.5, 1, 2, 4, 7, 24 hours post-dose. Plasma drug concentration was detected by LC-MS/MS. Pharmacokinetic parameters were calculated using WinNonlin's software with non-compartmental model.

[2] = test system: NCI-H446 cells; assay: Cell proliferation assay (CellTiter-Glo), NCI-H446; format: cell-based; conditions: Homo sapiens, NCI-H446, 120 h, 5 days
Protocol: (§1) Example B: Cell Proliferation Assay
(§2) NCI-H2171 and NCI-H446 cell proliferation analysis were conducted by CellTiter-Glo (Promega, Cat #G1111). The cells will be harvested respectively during the logarithmic growth period and counted with hemocytometer. […] Adjust NCI-H2171 and NCI-H446 cells concentrations to 1.0×10^5 cells/mL with complete medium (RPMI-1640 medium supplemented with 10% (v/v) fetal bovine serum). 100 μL/cell suspensions were added to 96-well plates, and the final cell densities were 1.0×10^4 cells/well. The plate will be cultured overnight in 5% CO2 and 95% humidity at 37° C. The next day, the test compound was dissolved in DMSO as stock solution. Then the different concentrations of compound were added into 96-well plates. The plates will be cultured for 5 days, then measured by means of CellTiter-Glo assay. 50 μL/cell CellTiter-Glo reagent was added into 96-well plates. Shock incubation for 5 min and then stand incubation for 10 min at room temperature. Record the Luminosity values using an microplate spectrophotometer (Spark, Tecan). Fit the data using GraphPad 8.0 and obtain IC50 values.
(§3) Formula: Survival (%)=(Lumtest−Lummedia control)/(Lumcell control−Lummedia control)×100%

[3] = test system: NCI-H2171 cells; assay: Cell proliferation assay (CellTiter-Glo), NCI-H2171; format: cell-based; conditions: Homo sapiens, NCI-H2171, 120 h, 5 days
Protocol: as §1, §2, §3

[4] = biological target: Aurora B (Homo sapiens (Human), UniProt Q96GD4); assay: Aurora B kinase assay (mobility shift assay); format: biochemical; conditions: ratio of Aurora B IC50 to Aurora A IC50
Protocol: (§4) Example A: Evaluation of Aurora a and Aurora B Inhibitory Effect—Kinase Assay
(§5) The inhibitory activities of a test compound against Aurora A and Aurora B were measured according to the following method.
(§6) The IC50 value of Aurora A and Aurora B kinase was performed by Sundia MediTech Co. Ltd. using Mobility shift assay.
(§7) • (1) Prepare a 1× kinase buffer [50 mM 4-(2-hydroxyethyl)-1-piperazineethanesulfonic acid (HEPES), PH 7.5, 0.01% Brij-35, 10 mM MgCl2, 2 mM dithiothreitol (DTT)]. • (2) Prepare compound:
(§8) The testing compound was dissolved with DMSO. The testing compound was diluted up to 100× final concentration in a 384-well plate. Transfer 250 nL of the compound dilution to a 384-well assay plate using Echo 550. 100% DMSO of 250 nL was added to the negative control well and the positive control well. • (3) Prepare a 2.5× enzyme solution using the above 1× kinase buffer. • (4) Add 10 μL of the 2.5× enzyme solution to the compound well and the positive control well of the 384-well assay plate. Add 10 μL of the 1× kinase buffer to the negative control well. • (5) The 384-well plate was centrifuged at 1000 rpm for 30 seconds and incubated at room temperature for 10 min. • (6) A mixture of ATP and Kinase substrate 21 with a final concentration of 25/15× was prepared by the 1× kinase buffer. • (7) Add 15 μL of the mixture of 25/15×ATP and kinase substrate solution 21 to start reaction. • (8) The 384-well plate was centrifuged at 1000 rpm for 30 seconds and incubated at room temperature. • (9) 30 μL of the stop and detection buffer was added to stop the kinase reaction and centrifuged at 1000 rpm for 30 seconds. • (10) Collect data on Caliper EZ ReaderII. Data Analysis:
(§9) Conversion %_sample is conversion rate data of samples. Conversion %_min is mean value of negative control (conversion rate data without enzyme activation). Conversion %_max is mean positive control (conversion rate data without compound).
(§10) The log of concentration is on the X axis, and the percentage inhibition is on the Y axis. Fit the Quantitative effect curves with log (inhibitor) vs. response—Variable slope in GraphPad Prism5 obtain IC50 values. Equation used is Y=Bottom+(Top−Bottom)/(1+10^((Log IC50−X)*HillSlope)).

[5] = biological target: Aurora A (Homo sapiens (Human), UniProt O14965); assay: Aurora A kinase assay (mobility shift assay); format: biochemical
Protocol: as §4, §5, §6, §7, §8, §9, §10

[6] = rat, plasma, PO: 10 mg/kg vs IV: 3 mg/kg
[7] = rat, plasma, PO: 10 mg/kg, read-out: Cmax

Chain of Aurora B (Q96GD4 whole entry): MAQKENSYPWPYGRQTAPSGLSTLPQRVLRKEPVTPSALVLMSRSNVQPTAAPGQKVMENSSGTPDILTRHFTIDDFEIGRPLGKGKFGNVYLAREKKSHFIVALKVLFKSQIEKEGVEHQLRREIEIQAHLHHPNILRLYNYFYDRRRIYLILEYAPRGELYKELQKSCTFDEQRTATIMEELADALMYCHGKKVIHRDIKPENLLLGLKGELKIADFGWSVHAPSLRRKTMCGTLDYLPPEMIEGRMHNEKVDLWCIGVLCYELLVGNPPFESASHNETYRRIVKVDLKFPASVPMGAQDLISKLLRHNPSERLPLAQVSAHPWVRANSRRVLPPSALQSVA
Chain of Aurora A (O14965 whole entry): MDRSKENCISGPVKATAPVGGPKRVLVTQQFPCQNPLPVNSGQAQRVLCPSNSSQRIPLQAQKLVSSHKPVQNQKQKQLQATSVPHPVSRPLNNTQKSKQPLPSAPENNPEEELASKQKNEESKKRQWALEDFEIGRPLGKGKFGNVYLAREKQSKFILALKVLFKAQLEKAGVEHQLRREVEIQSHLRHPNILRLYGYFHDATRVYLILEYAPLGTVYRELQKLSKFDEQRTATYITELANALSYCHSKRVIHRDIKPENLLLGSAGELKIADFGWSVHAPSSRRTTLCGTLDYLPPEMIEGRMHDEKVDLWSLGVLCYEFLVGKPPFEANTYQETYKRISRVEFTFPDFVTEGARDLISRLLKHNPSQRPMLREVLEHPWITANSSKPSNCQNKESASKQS

Compound | IC50 [2] | IC50 [3] | IC50 Ratio Aur B/Aur A [4] | IC50 [5] | further results
Cc1cc(Nc2ccc(F)c(C[C@@]3(C(=O)O)CCN(Cc4c(F)ccc(Cl)c4F)[C@H](C)C3)n2)n[nH]1 [Example 6, (2R,4R)-1-(3-chloro-2,6-difluorobenzyl)-4-((3-fluoro-6-((5-methyl-1H-pyrazol-3-yl)amino)pyridin-2-yl)methyl)-2-methylpiperidine-4-carboxylic acid] | 103 nM | 55 nM | 6112 | 0.33 nM | clearance ([1]; rat, plasma, IV: 3 mg/kg): 0.67 mL/min/kg; Vd ([1]; rat, plasma, IV: 3 mg/kg): 0.18 L/kg; AUC(0-t) ([1]; rat, plasma, PO: 10 mg/kg): 215 µg·h/mL; half-life ([1]; rat, plasma, PO: 10 mg/kg): 6.3 h; bioavailability [1, 6]: 86%; Cmax [1, 7]: 34900 ng/mL
CC[C@@H]1C[C@](Cc2nc(Nc3cc(C)[nH]n3)ccc2F)(C(=O)O)CCN1Cc1cccc(Cl)c1F [Example 8, (2R,4R)-1-(3-chloro-2-fluorobenzyl)-2-ethyl-4-((3-fluoro-6-((5-methyl-1H-pyrazol-3-yl)amino)pyridin-2-yl)methyl) piperidine-4-carboxylic acid] | 119 nM | 75 nM | 1288 | 1.2 nM | 
Cc1cc(Nc2cc(C)c(F)c(C[C@@]3(C(=O)O)CCN(Cc4c(F)ccc(Cl)c4F)[C@H](C)C3)n2)n[nH]1 [Example 50, (2R,4R)-1-(3-chloro-2,6-di-fluorobenzyl)-4-((3-fluoro-4-methyl-6-((5-methyl-1H-pyra-zol-3-yl)amino)pyridin-2-yl)-methyl)-2-methylpiperidine-4-carboxylic acid] | 73 nM | 25 nM | 845 | 0.52 nM | clearance ([1]; rat, plasma, IV: 3 mg/kg): 1.45 mL/min/kg; Vd ([1]; rat, plasma, IV: 3 mg/kg): 0.26 L/kg; AUC(0-t) ([1]; rat, plasma, PO: 10 mg/kg): 173 µg·h/mL; half-life ([1]; rat, plasma, PO: 10 mg/kg): 3.62 h; bioavailability [1, 6]: 140%; Cmax [1, 7]: 16100 ng/mL
CC(=O)c1cc(Nc2cc(C)[nH]n2)nc(CC2(C(=O)O)CCN(Cc3cccc(Cl)c3F)CC2)c1F [Example 69, 4-((4-acetyl-3-fluoro-6-((5-methyl-1H-pyrazol-3-yl)-amino)pyridin-2-yl)methyl)-1-(3-chloro-2-fluorobenzyl)-piperidine-4-carboxylic acid] | 87 nM | 41 nM |  |  | 
Cc1cc(Nc2ccc(F)c(C[C@@]3(C(=O)O)CCN(Cc4cccc(Cl)c4F)[C@H](C)C3)n2)n[nH]1 [LY3295668, reference compound] |  |  |  |  | CL ([1]; IV: 3 mg/kg): 1.52 mL/min/kg; Vss ([1]; IV: 3 mg/kg): 0.29 L/kg; AUClast ([1]; PO: 10 mg/kg): 91.211 µg·h/mL; Cmax ([1]; PO: 10 mg/kg): 15033 ng/mL; t1/2 ([1]; PO: 10 mg/kg): 3.37 h; F% ([1]; PO: 10 mg/kg vs IV: 3 mg/kg): 81%

The next lines start with results.

IC50 [2] | IC50 [3] | IC50 Ratio Aur B/Aur A [4] | IC50 [5] | Compound | further results
128 nM | 62 nM |  |  | Cc1cc(Nc2cc(F)cc(C[C@@]3(C(=O)O)CCN(Cc4cccc(Cl)c4F)[C@H](C)C3)n2)n[nH]1 [Example 30, (2R,4R)-1-(3-chloro-2-fluorobenzyl)-4-((4-fluoro-6-((5-methyl-1H-pyrazol-3-yl)amino)pyridin-2-yl)methyl)-2-methylpiperidine-4-carboxylic acid] | 
154 nM | 57 nM | 562 | 0.55 nM | Cc1cc(Nc2cc(C)c(F)c(C[C@@]3(C(=O)O)CCN(Cc4cccc(Cl)c4Cl)[C@H](C)C3)n2)n[nH]1 [Example 53, (2R,4R)-1-(2,3-dichloro-benzyl)-4-((3-fluoro-4-methyl-6-((5-methyl-1H-pyrazol-3-yl)-amino)pyridin-2-yl)methyl)-2-methylpiperidine-4-carboxylic acid] | 
63 nM | 27 nM | 779 | 0.76 nM | Cc1cc(Nc2nc(C[C@@]3(C(=O)O)CCN(Cc4cccc(Cl)c4F)[C@H](C)C3)cc(Cl)c2F)n[nH]1 [Example 73, (2R,4R)-1-(3-chloro-2-fluorobenzyl)-4-((4-chloro-5-fluoro-6-((5-methyl-1H-pyrazol-3-yl)amino)pyridin-2-yl)methyl)-2-methylpiperidine-4-carboxylic acid] | 
